Experimental data: patent US9617286B2, “Fungicide N-[(trisubstitutedsilyl)methyl]-carboxamide derivatives” (BAYER INTELLECTUAL PROPERTY GMBH, priority 2011, dated 2017)

What was measured:
Pyrenophora teres = assay: In vivo preventive test on Pyrenophora teres (barley); details: preventive spray (DMF/alkylaryl polyglycol ether), 500 ppm of active ingredient, evaluated 7-9 days after inoculation
Procedure: Solvent: 49 parts by weight of N,N-dimethylformamide Emulsifier: 1 part by weight of alkylaryl polyglycol ether To produce a suitable preparation of active compound, 1 part by weight of active compound is mixed with the stated amounts of solvent and emulsifier, and the concentrate is diluted with water to the desired concentration. To test for preventive activity, young plants are sprayed with the preparation of active compound at the stated rate of application. One day after this treatment, the plants are inoculated with an aqueous spore suspension of Pyrenophora teres. The plants remain for 48 hours in an incubation cabinet at 22° C. and a relative atmospheric humidity of 100%. Then the plants are placed in a greenhouse at a temperature of approximately 20° C. and a relative atmospheric humidity of approximately 80%.

[1] = log P by HPLC on reversed-phase column (C 18), EEC Directive 79/831 Annex V.A8; assay type: physicochemical; details: 40° C., 0.1% aqueous formic acid and acetonitrile, linear gradient 10% to 90% acetonitrile
Procedure: In table 1, the log P values were determined in accordance with EEC Directive 79/831 Annex V.A8 by HPLC (High Performance Liquid Chromatography) on a reversed-phase column (C 18), using the method described below:
Temperature: 40° C.; Mobile phases: 0.1% aqueous formic acid and acetonitrile; linear gradient from 10% acetonitrile to 90% acetonitrile.
Calibration was carried out using unbranched alkan-2-ones (comprising 3 to 16 carbon atoms) with known log P values (determination of the log P values by the retention times using linear interpolation between two successive alkanones). lambda-max-values were determined using UV-spectra from 200 nm to 400 nm and the peak values of the chromatographic signals.

Septoria tritici = assay: In vivo preventive test on Septoria tritici (wheat); details: preventive spray, 500 ppm of active ingredient, grading 24 days after contamination
Procedure: Wheat plants (“Scipion” variety), sown in starter cups on a 50/50 peat soil pozzolana substrate and grown at 22° C., are treated at the 1 leaf stage (10 cm height) by spraying with the active ingredient prepared as described above. Plants, used as controls, are treated with the mixture of acetone/tween/DMSO/water not containing the active material. After 24 hours, the plants are contaminated by spraying the leaves with an aqueous suspension of cryopreserved Septoria tritici spores (500 000 spores per mL). The contaminated wheat plants are incubated for 72 hours at 18° C. and at 100% relative humidity, and then for 21 days at 90% relative humidity. Grading (% of efficacy) is carried out 24 days after the contamination, in comparison with the control plants.

Sphaerotheca fuliginea = assay: In vivo preventive test on Sphaerotheca fuliginea (powdery mildew on cucurbits); details: gherkin plants, preventive spray, 500 ppm of active ingredient, grading 12 days after contamination
Procedure: Gherkin plants (“Vert petit de Paris” variety), sown in starter cups on a 50/50 peat soil-pozzolana substrate and grown at 24° C., are treated at the Z11 cotyledon stage by spraying with the active ingredient prepared as described above. Plants, used as controls, are treated with the mixture of acetone/tween/DMSO/water not containing the active material. After 24 hours, the plants are contaminated by spraying the cotyledons with an aqueous suspension of Sphaerotheca fuliginea spores (100 000 spores per mL). The spores are collected from infected plants. The contaminated gherkin plants are incubated at about 20° C. and at 70-80% relative humidity. Grading (% of efficacy) is carried out 12 days after the contamination, in comparison with the control plants.

Puccinia recondita = assay: In vivo preventive test on Puccinia recondita (brown rust on wheat); details: preventive spray, 500 ppm of active ingredient, grading 12 days after contamination
Procedure: Wheat plants (“Scipion” variety), sown in starter cups on a 50/50 peat soil pozzolana substrate and grown at 22° C., are treated at the 1 leaf stage (10 cm height) by spraying with the active ingredient prepared as described above. Plants, used as controls, are treated with the mixture of acetone/tween/DMSO/water not containing the active material. After 24 hours, the plants are contaminated by spraying the leaves with an aqueous suspension of Puccinia recondita spores (100 000 spores per mL). The spores are collected from an infected plant and are suspended in water containing 2.5 mL/L of Tween 80 at 10%. The contaminated wheat plants are incubated for 24 hours at 20° C. and at 100% relative humidity, and then for 10 days at 20° C. and at 70-80% relative humidity. Grading (% of efficacy) is carried out 12 days after the contamination, in comparison with the control plants.

logP [1] | SMILES | Efficacy (Pyrenophora teres) | further results
4.49 | C[Si](C)(CN(C(=O)c1cccnc1C(F)F)C1CC1)c1cc(Cl)cc(Cl)c1 [Example 68] | 80% | 
3.96 | C[Si](C)(CN(C(=O)c1cccnc1C(F)(F)F)C1CC1)c1ccccc1F [Example 15] | 100% | Efficacy (Septoria tritici): 71%; Efficacy (Sphaerotheca fuliginea): 72%; Efficacy (Puccinia recondita): 75%
4.13 | C[Si](C)(CN(C(=O)c1nccnc1C(F)(F)F)C1CC1)c1ccccc1 [Example 9] | 100% | Efficacy (Septoria tritici): 86%
4.34 | C[Si](C)(CN(C(=O)c1cccnc1C(F)(F)F)C1CC1)c1cccc(Cl)c1 [Example 33] | 80% | 
5.45 | C[Si](C)(Cc1ccc(Cl)cc1Cl)CN(C(=O)c1nccnc1C(F)(F)F)C1CC1 [Example 111] | 95% | 
3.58 | C[Si](C)(CN(C(=O)c1cccnc1Cl)C1CC1)c1ccccc1F [Example 17] | 86% | Efficacy (Septoria tritici): 79%
2.94 | C[Si](C)(CNC(=O)c1cccnc1Cl)c1ccccc1Cl [Example 40] |  | Efficacy (Septoria tritici): 96%
5.25 | C[Si](C)(CN(C(=O)c1nccnc1C(F)(F)F)C1CC1)c1ccc(Cl)cc1Cl [Example 58] | 100% | 
4.61 | C[Si](C)(CN(C(=O)c1nccnc1C(F)(F)F)C1CC1)c1ccccc1C(F)(F)F [Example 54] | 100% | Efficacy (Septoria tritici): 93%; Efficacy (Sphaerotheca fuliginea): 83%
3.15 | C[Si](C)(CNC(=O)c1nccnc1C(F)(F)F)c1ccccc1 [Example 7] | 100% | Efficacy (Septoria tritici): 93%
4.61 | C[Si](C)(CN(C(=O)c1cccnc1Cl)C1CC1)c1cc(Cl)cc(Cl)c1 [Example 65] |  | 
3.39 | C[Si](C)(CN(C(=O)c1cccnc1Cl)C1CC1)c1cccs1 [Example 83] |  | 
4.11 | C[Si](C)(Cc1ccccc1Cl)CN(C(=O)c1cccnc1C(F)F)C1CC1 [Example 98] |  | 
4.34 | CC[Si](C)(CN(C(=O)c1cccnc1Cl)C1CC1)c1ccccc1Cl (stereo not drawn) [Example 38] |  | Efficacy (Septoria tritici): 80%
3.89 | C[Si](C)(CN(C(=O)c1cccnc1C(F)F)C1CC1)c1cc(F)ccc1Cl [Example 51] | 97% | Efficacy (Septoria tritici): 100%; Efficacy (Puccinia recondita): 88%
4.01 | C[Si](C)(CN(C(=O)c1nccnc1C(F)(F)F)C1CC1)c1cccs1 [Example 82] | 95% | 
4.39 | C[Si](C)(CN(C(=O)c1cccnc1C(F)(F)F)C1CC1)c1ccccc1C(F)(F)F [Example 55] | 97% | Efficacy (Septoria tritici): 64%
4.49 | C[Si](C)(CN(C(=O)c1ccccc1I)C1CC1)c1ccsc1 [Example 89] |  | 
5.25 | C[Si](C)(CN(C(=O)c1ccccc1C(F)(F)F)C1CC1)c1ccc2ccccc2c1 [Example 80] |  | 
6.14 | C[Si](C)(Cc1cc(Cl)cc(Cl)c1)CN(C(=O)c1ccccc1I)C1CC1 [Example 119] |  | 
5.35 | C[Si](C)(CN(C(=S)c1nccnc1C(F)(F)F)C1CC1)c1ccc2ccccc2c1 [Example 126] |  | 
4.76 | C[Si](C)(Cc1ccccc1Cl)CN(C(=S)c1cccnc1C(F)F)C1CC1 [Example 127] |  | 
3.80 | Cc1ccccc1[Si](C)(C)CN(C(=O)c1cccnc1Cl)C1CC1 [Example 13] | 100% | Efficacy (Septoria tritici): 97%
4.15 | C[Si](C)(CN(C(=O)c1cccnc1Cl)C1CC1)c1cccc2ccccc12 [Example 69] |  | 
4.25 | C[Si](C)(Cc1ccccc1Cl)CN(C(=O)c1cccnc1Cl)C1CC1 [Example 100] |  | 

logP [1] | SMILES | Efficacy (Pyrenophora teres) | further results
5.88 | C[Si](C)(CN(C(=O)c1ccccc1I)C1CC1)c1ccc(Cl)cc1Cl [Example 60] |  | 
2.61 | C[Si](C)(CNC(=O)c1cccnc1Cl)c1ccccc1 [Example 3] |  | Efficacy (Septoria tritici): 90%; Efficacy (Puccinia recondita): 75%
4.51 | C[Si](C)(CN(C(=O)c1cccnc1C(F)(F)F)C1CC1)c1cccc2ccccc12 [Example 73] |  | 
5.14 | C[Si](C)(CN(C(=O)c1ccccc1I)C1CC1)c1ccccc1Cl [Example 24] |  | 
3.83 | C[Si](C)(CNC(=S)c1cccnc1C(F)F)c1ccccc1Cl [Example 123] |  | 
4.61 | C[Si](C)(Cc1cccc(Cl)c1)CN(C(=O)c1cccnc1C(F)(F)F)C1CC1 [Example 109] |  | 
5.14 | C[Si](C)(CN(C(=O)c1ccccc1I)C1CC1)c1cccc(Cl)c1 [Example 30] |  | 
4.19 | C[Si](C)(Cc1ccccc1)CN(C(=O)c1cccnc1C(F)(F)F)C1CC1 [Example 97] |  | 
4.92 | C[Si](C)(Cc1cc(Cl)cc(Cl)c1)CN(C(=O)c1cccnc1Cl)C1CC1 [Example 118] |  | 
4.31 | C[Si](C)(CN(C(=O)c1cccnc1C(F)(F)F)C1CC1)c1ccccc1Cl [Example 27] |  | 
5.65 | C[Si](C)(CN(C(=O)c1ccccc1C(F)(F)F)C1CC1)c1cc(Cl)cc(Cl)c1 [Example 66] |  | 
4.30 | C[Si](C)(Cc1cccc(Cl)c1)CN(C(=O)c1cccnc1Cl)C1CC1 [Example 106] |  | 
5.31 | C[Si](C)(Cc1ccccc1Cl)CN(C(=O)c1ccccc1C(F)(F)F)C1CC1 [Example 102] |  | 
5.94 | C[Si](C)(Cc1cc(Cl)cc(Cl)c1)CN(C(=O)c1ccccc1C(F)(F)F)C1CC1 [Example 120] |  | 
4.64 | C[Si](C)(CN(C(=O)c1cccnc1Cl)C1CC1)c1ccc(Cl)cc1Cl [Example 59] |  | 
3.96 | C[Si](C)(CN(C(=O)c1cccnc1Cl)C1CC1)c1cccc(Cl)c1 [Example 35] |  | 
3.50 | C[Si](C)(CNC(=O)c1nccnc1C(F)(F)F)c1ccccc1Cl [Example 41] |  | Efficacy (Septoria tritici): 90%; Efficacy (Sphaerotheca fuliginea): 78%
4.77 | CCc1ccccc1[Si](C)(C)CN(C(=O)c1nccnc1C(F)(F)F)C1CC1 [Example 21] | 100% | Efficacy (Septoria tritici): 86%; Efficacy (Sphaerotheca fuliginea): 98%; Efficacy (Puccinia recondita): 75%
5.03 | C[Si](C)(CN(C(=O)c1ccccc1C(F)(F)F)C1CC1)c1ccccc1Cl [Example 25] |  | 
5.31 | C[Si](C)(Cc1cccc(Cl)c1)CN(C(=O)c1ccccc1C(F)(F)F)C1CC1 [Example 108] |  | 
5.19 | C[Si](C)(CN(C(=O)c1ccccc1C(F)(F)F)C1CC1)c1cccc2ccccc12 [Example 71] |  | 
4.90 | C[Si](C)(Cc1ccc(Cl)cc1Cl)CN(C(=O)c1cccnc1Cl)C1CC1 [Example 112] |  | 
3.25 | C[Si](C)(CNC(=O)c1cccnc1C(F)(F)F)c1ccccc1Cl [Example 39] |  | Efficacy (Septoria tritici): 96%
4.56 | C[Si](C)(CN(C(=O)c1cccnc1C(F)(F)F)C1CC1)c1ccc2ccccc2c1 [Example 78] | 95% | 
3.87 | C[Si](C)(Cc1ccccc1)CN(C(=O)c1cccnc1Cl)C1CC1 [Example 94] |  | 
